Experimental data reported in patent publication US9428549B2, “Derivatives of N-urea substituted amino acids as formyl peptide receptor modulators” (Allergan, Inc., priority 2013, dated 2016).
pEC50: −log10 of the molar value. “And” between values parts separate entries of the source, which are not always exact repeats. Equal values may be shown once.

Target: T1, FPR2 (Homo sapiens, UniProt P25090)
T1 construct: expressed in transfected cells
T1 sequence (P25090 1-351): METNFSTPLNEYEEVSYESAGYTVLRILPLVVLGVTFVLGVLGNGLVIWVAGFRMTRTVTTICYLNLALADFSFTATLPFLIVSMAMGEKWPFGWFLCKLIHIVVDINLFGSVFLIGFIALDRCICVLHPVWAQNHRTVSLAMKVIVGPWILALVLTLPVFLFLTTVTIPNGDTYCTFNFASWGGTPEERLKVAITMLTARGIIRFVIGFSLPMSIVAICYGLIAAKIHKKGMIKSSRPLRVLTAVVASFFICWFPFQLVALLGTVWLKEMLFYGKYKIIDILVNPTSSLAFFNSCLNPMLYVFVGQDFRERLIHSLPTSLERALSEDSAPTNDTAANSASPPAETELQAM
Test: Compound-induced calcium activity on FLIPR Tetra in CHO-Gα16 cells stably expressing FPRL1
Format: cell-based
Conditions: for FPR2 Ga16-CHO (Rel. eff.): relative efficacy; for pEC50: tested 0.61 to 10,000 nM, read-out: FPR2 Ga16-CHO EC50
Experimental: CHO-Gα16 cells stably expressing FPRL1 were cultured in (F12, 10% FBS, 1% PSA, 400 μg/ml geneticin and 50 μg/ml hygromycin) and HEK-Gqi5 cells stable expressing FPR1 were cultured in (DMEM high glucose, 10% FBS, 1% PSA, 400 μg/ml geneticin and 50 μg/ml hygromycin). In general, the day before the experiment, 18,000 cells/well were plated in a 384-well clear bottom poly-d-lysine coated plate. The following day the screening compound-induced calcium activity was assayed on the FLIPR^Tetra. The drug plates were prepared in 384-well microplates using the EP3 and the MultiPROBE robotic liquid handling systems. Compounds were tested at concentrations ranging from 0.61 to 10,000 nM. Results are expressed as EC50 (nM) and efficacy values.

Row | Compound | FPR2 Ga16-CHO (Rel. eff.) | pEC50 | FPR2 Ga16-CHO (Rel. eff.) (listed as {Ethyl[(2S)-4-Methyl-2-({[4-(trifluoromethyl)phenyl]carbamoyl}amino)pentanoyl]am) | FPR2 Ga16-CHO (Rel. eff.) (listed as {Ethyl[(2S)-4-methyl-2-({[4-(trifluoromethyl)phenyl]carbamoyl}amino)pentanoyl]am)
1 | CCN(CC(=O)OC(C)(C)C)C(=O)[C@H](CC(C)C)NC(=O)Nc1ccc(C(F)(F)F)cc1 [Compound 7, tert-Butyl {Ethyl[(2S)-4-methyl-2-({[4-(trifluoromethyl)phenyl]carbamoyl}amino)pentanoyl]amino}acetate] | (0.91) | 7.77 | – | –
2 | CCN(CC(=O)OC(C)(C)C)C(=O)[C@H](CC(C)C)NC(=O)Nc1ccc(Br)cc1 [Compound 6, tert-Butyl {[(2S)-2-{[(4-bromophenyl)carbamoyl]amino}-4-methylpentanoyl](ethyl)amino}acetate] | (0.50) | 5.71 | – | –
3 | CCN(CC(=O)O)C(=O)[C@H](CC(C)C)NC(=O)Nc1ccc(C(F)(F)F)cc1 [Compound 15, {Ethyl[(2S)-4-Methyl-2-({[4-(trifluoromethyl)phenyl]carbamoyl}amino)pentanoyl]amino}acetic acid] | – | 9.49 and 8.73 | (0.85) | (1.02)
4 | CC(C)C[C@H](NC(=O)Nc1ccc(C(F)(F)F)cc1)C(=O)N(CC(=O)O)C(C)C [Compound 11, {[(2S)-4-Methyl-2-({[4-(trifluoromethyl)phenyl]carbamoyl}amino)pentanoyl](propan-2-yl)amino}acetic acid] | (0.75) | 5.76 | – | –
5 | CC(C)C[C@H](NC(=O)Nc1ccc(C(F)(F)F)cc1)C(=O)N(C)CC(=O)OC(C)(C)C [Compound 2, tert-Butyl {Methyl[(2S)-4-methyl-2-({[4-(trifluoromethyl)phenyl]carbamoyl}amino)pentanoyl]amino}acetate] | (1.02) | 6.00 | – | –
6 | CC(C)C[C@H](NC(=O)Nc1ccc(Br)cc1)C(=O)N(CC(=O)OC(C)(C)C)C(C)C [Compound 3, tert-Butyl {[(2S)-2-{[(4-Bromophenyl)carbamoyl]amino}-4-methylpentanoyl](propan-2-yl)amino}acetate] | (1.06) | 6.79 | – | –
7 | CC(C)C[C@H](NC(=O)Nc1ccc(Br)cc1)C(=O)N(C)CC(=O)O [Compound 8, {[(2S)-2-{[(4-bromophenyl)carbamoyl]amino}-4-methylpentanoyl](methyl)amino}acetic acid] | (1.00) | > 9.00 | – | –
8 | CCCN(CC(=O)OC(C)(C)C)C(=O)[C@H](CC(C)C)NC(=O)Nc1ccc(C(F)(F)F)cc1 [Compound 5, tert-Butyl {[(2S)-4-Methyl-2-({[4-(trifluoromethyl)phenyl]carbamoyl}amino)pentanoyl](propyl)amino}acetate] | (0.95) | 6.36 | – | –
9 | CC(C)C[C@H](NC(=O)Nc1ccc(Br)cc1)C(=O)N(C)CC(=O)OC(C)(C)C [Compound 1, tert-Butyl{[(2S)-2-{[(4-Bromophenyl)carbamoyl]amino}-4-methylpentanoyl](methyl)amino}acetate] | (0.85) | 7.93 | – | –

Continued, values first:

Row | FPR2 Ga16-CHO (Rel. eff.) | pEC50 | FPR2 Ga16-CHO (Rel. eff.) (listed as {Ethyl[(2S)-4-Methyl-2-({[4-(trifluoromethyl)phenyl]carbamoyl}amino)pentanoyl]am) | FPR2 Ga16-CHO (Rel. eff.) (listed as {Ethyl[(2S)-4-methyl-2-({[4-(trifluoromethyl)phenyl]carbamoyl}amino)pentanoyl]am) | Compound
10 | (0.99) | 9.89 | – | – | CCN(CC(=O)O)C(=O)[C@H](CC(C)C)NC(=O)Nc1ccc(Br)cc1 [Compound 14, {[(2S)-2-{[(4-Bromophenyl)carbamoyl]amino}-4-methylpentanoyl](ethyl)amino}acetic acid]
11 | (1.04) | > 9.00 | – | – | CCCN(CC(=O)O)C(=O)[C@H](CC(C)C)NC(=O)Nc1ccc(C(F)(F)F)cc1 [Compound 13, {[(2S)-4-Methyl-2-({[4-(trifluoromethyl)phenyl]carbamoyl}amino)pentanoyl](propyl)amino}acetic acid]
12 | (1.02) | 9.39 | – | – | CC(C)C[C@H](NC(=O)Nc1ccc(C(F)(F)F)cc1)C(=O)N(C)CC(=O)O [Compound 9, {Methyl[(2S)-4-Methyl-2-({[4-(trifluoromethyl)phenyl]carbamoyl}amino)pentanoyl]amino}acetic acid]
13 | (1.04) | 9.54 | – | – | CCCN(CC(=O)OC(C)(C)C)C(=O)[C@H](CC(C)C)NC(=O)Nc1ccc(Br)cc1 [Compound 4, tert-Butyl {[(2S)-2-{[(4-Bromophenyl)carbamoyl]amino}-4-methylpentanoyl](propyl)amino}acetate]
14 | (0.97) | 9.62 | – | – | CC(C)C[C@H](NC(=O)Nc1ccc(Br)cc1)C(=O)N(CC(=O)O)C(C)C [Compound 10, {[(2S)-2-{[(4-Bromophenyl)carbamoyl]amino}-4-methylpentanoyl](propan-2-yl)amino}acetic acid]
